Experimental findings from patent publication US10577315B2, “Compositions and methods for treatment of prostate carcinoma” (Pellficure Pharmaceuticals, Inc., priority 2014, dated 2020) are described below.

This experiment deals with PTEN-P2/GFP prostate cancer cells. Put plainly: Effect of 1,4-naphthoquinone analogs on PTEN-P2/GFP cell proliferation (WST-1 cell viability, 24 h). The format is cell-based. The conditions noted are these: Mus musculus, WST-1, medium with 10% FBS and DHT, read-out: PTEN-P2/GFP cell proliferation, percent of control. The method, then:
Cells are grown in phenol red-free DMEM medium containing 10% FBS, 2 mM L-glutamine, 100 U/ml penicillin/100 μg/ml streptomycin, insulin-selenium-transferrin (5 μg/ml insulin), and DHT 10^−8M final. Androgen withdrawal is achieved by not adding DHT to the medium. Cells are maintained in a humidified incubator at 37° C. and 5% CO2. G418 (100 μg/ml) is added to maintain stable expression of H2B-GFP.
100 microliters of PTEN-P2/GFP prostate cancer cells were plated at a density of 8000 cells/well in 96-well plates (triplicates) in growing medium containing 10% Fetal Bovine Serum and DHT. The next day, increasing concentrations of a 1,4-naphthoquinone analog (diluted from 10 mM DMSO stock solutions) were added. DMSO used as solvent for all analogs, was kept constant through the 96-well plates. The control consisted of DMSO alone. The cells were subsequently incubated for 24 hours at 37° C. and 5% CO2 in normal cell growth conditions. Cell viability was assessed by adding 9 μL/well of WST-1 reagent (Clontech), which measured mitochondrial activity of live cells. […] The incubation time was 3 hours at 37° C. Optical density of the cell samples was measured at 460 nm, by using plate reader Spectra Max 250 (Molecular Devices). The drug was determined to be cytotoxic when OD values show an inverse correlation with analog concentrations. The results are shown in TABLES 3.1-3.4, FIGS. 2A-2E, and FIGS. 3A-3D.
For orientation: Formazan colour is commonly taken as a measure of viable cells.

With `CC(=O)NC1=C(Cl)C(=O)c2ccccc2C1=O` [Analog F37, 2-N-acetylamino-3-chloro-1,4-naphthoquinone], the activity at 2 µM was 101%, the activity at 3 µM was determined as 94.4%, the activity at 4 µM is 86.6% and the activity at 5 µM worked out at 71.4%. Also, the activity at 6 µM was found to be 55.7%, the activity at 7 µM amounted to 36.7%, the activity at 10 µM amounted to 17.6% and the activity at 15 µM was 13.9%. Moreover, the activity at 25 µM amounted to 13.6%.

As for `CC(=O)NC1=C(Oc2ccccc2)C(=O)c2ccccc2C1=O` [Analog F38, N-(1,4-dioxo-3-phenoxy-1,4-dihydronaphthalen-2-yl)acetamide], the activity at 2 µM amounted to 95.8%, the activity at 3 µM came to 87%, the activity at 4 µM was 71.7% and the activity at 5 µM is 54%. Also, the activity at 6 µM was determined as 41%, the activity at 7 µM came to 30.7%, the activity at 10 µM is 16.6% and the activity at 15 µM is 14.7%. Moreover, the activity at 25 µM is 14.3%.

Take `CC(=O)NC1=C(Oc2ccc(Cl)cc2)C(=O)c2ccccc2C1=O` [Analog F39, N-(3-(4-chlorophenoxy)-1,4-dioxo-1,4-dihydronaphthalen-2-yl)acetamide]: the activity at 2 µM is 102%, the activity at 3 µM was 82.2%, the activity at 4 µM was 70.6% and the activity at 5 µM turned out to be 57.5%. The activity at 6 µM was 41.5%, the activity at 7 µM was determined as 29.4%, the activity at 10 µM turned out to be 14.3% and the activity at 15 µM came to 12%. The activity at 25 µM turned out to be 12.7%.

Take `CC(=O)NC1=C(Oc2ccc(NC(C)=O)cc2)C(=O)c2ccccc2C1=O` [Analog F40, N-(4-((3-acetamido-1,4-dioxo-1,4-dihydronaphthalen-2-yl)oxy)phenyl)acetamide]: the activity at 2 µM was found to be 97%, the activity at 3 µM came out at 98.8%, the activity at 4 µM is 89.2% and the activity at 5 µM came out at 85.2%. Besides, the activity at 6 µM worked out at 73.2%, the activity at 7 µM came to 67.3%, the activity at 10 µM was 56.2% and the activity at 15 µM is 46.1%. Further, the activity at 25 µM was determined as 44.6%.

Consider `COc1ccc(OC2=C(NC(C)=O)C(=O)c3ccccc3C2=O)cc1` [Analog F41, N-(3-(4-methoxyphenoxy)-1,4-dioxo-1,4-dihydronaphthalen-2-yl)acetamide], for which the activity at 2 µM was 95.1%, the activity at 3 µM worked out at 89.8%, the activity at 4 µM worked out at 84.5% and the activity at 5 µM stood at 75%. The activity at 6 µM was found to be 69.6%, the activity at 7 µM was determined as 63.9%, the activity at 10 µM stood at 36.9% and the activity at 15 µM is 13.5%. For the same compound, the activity at 25 µM came out at 12.6%.

As to `CC(=O)NC1=C(Oc2ccc(OCc3ccccc3)cc2)C(=O)c2ccccc2C1=O` [Analog F42, N-(3-(4-(benzyloxy)phenoxy)-1,4-dioxo-1,4-dihydronaphthalen-2-yl)acetamide], the activity at 2 µM stood at 101%, the activity at 3 µM worked out at 101%, the activity at 4 µM worked out at 97.6% and the activity at 5 µM was determined as 89.1%. Moreover, the activity at 6 µM came to 83.8%, the activity at 7 µM turned out to be 75.3%, the activity at 10 µM stood at 37.5% and the activity at 15 µM was 20.2%. Moreover, the activity at 25 µM stood at 16.6%.

Consider `CC(=O)NC1=C(Oc2cc(F)cc(F)c2)C(=O)c2ccccc2C1=O` [Analog F43, N-(3-(3,5-difluorophenoxy)-1,4-dioxo-1,4-dihydronaphthalen-2-yl)acetamide], for which the activity at 2 µM amounted to 94.6%, the activity at 3 µM was found to be 88.7%, the activity at 4 µM is 78.3% and the activity at 5 µM was 68.4%. Also, the activity at 6 µM came out at 55.3%, the activity at 7 µM turned out to be 45.2%, the activity at 10 µM came out at 32.9% and the activity at 15 µM was 24.7%. Further, the activity at 25 µM worked out at 24.1%.

As to `CC(=O)NC1=C(Oc2ccc(OC3=C(NC(C)=O)C(=O)c4ccccc4C3=O)cc2)C(=O)c2ccccc2C1=O` [Analog F44, N,N′-((1,4-phenylenebis(oxy))bis(1,4-dioxo-1,4-dihydronaphthalene-3,2-diyl))diacetamide], the activity at 2 µM turned out to be 106%, the activity at 3 µM worked out at 102%, the activity at 4 µM was 69% and the activity at 5 µM turned out to be 58.6%. In addition, the activity at 6 µM came to 50.5%, the activity at 7 µM was 45.4%, the activity at 10 µM was 38.7% and the activity at 15 µM was 20.9%. Further, the activity at 25 µM was 17.1%.

For the compound `COC(=O)CSC1=C(C)C(=O)c2cccc(O)c2C1=O` [Analog F46, Methyl 2-((8-hydroxy-3-methyl-1,4-dioxo-1,4-dihydronaphthalen-2-yl)thio)acetate], the activity at 1 µM came to 95.4%, the activity at 2 µM was 90.6%, the activity at 3 µM came out at 84.9% and the activity at 4 µM is 75%. Also, the activity at 5 µM turned out to be 66.1%, the activity at 6 µM was 60.6%, the activity at 7 µM was 54.7% and the activity at 10 µM amounted to 33%. In addition, the activity at 25 µM worked out at 13% and the activity at 50 µM was 13.6%.

For the compound `COc1cccc2c1C(=O)C=C(C)C2=O` [Analog F47, 5-methoxy-2-methyl-1,4-naphthoquinone], the activity at 1 µM stood at 105%, the activity at 2 µM turned out to be 104%, the activity at 3 µM came out at 104% and the activity at 4 µM came to 107%. Besides, the activity at 5 µM stood at 105%, the activity at 6 µM is 105%, the activity at 7 µM came out at 106% and the activity at 10 µM turned out to be 109%. For the same compound, the activity at 25 µM amounted to 78.8% and the activity at 50 µM was 11.1%.

For `CC1=CC(=O)c2c(OCCCCI)cccc2C1=O` [Analog F48, 5-(4-iodobutoxy)-2-methyl-1,4-naphthoquinone], the activity at 1 µM was determined as 103%, the activity at 2 µM amounted to 102%, the activity at 3 µM came to 102% and the activity at 4 µM came to 102%. Besides, the activity at 5 µM was found to be 109%, the activity at 6 µM was 112%, the activity at 7 µM worked out at 115% and the activity at 10 µM was found to be 103%. In addition, the activity at 25 µM turned out to be 11% and the activity at 50 µM came out at 10%.

As to `COc1ccc(OC)c2c1C(=O)C=CC2=O` [Analog F52, 5,8-dimethoxy-1,4-naphthoquinone], the activity at 1 µM is 106%, the activity at 2 µM turned out to be 108%, the activity at 3 µM worked out at 112% and the activity at 4 µM came to 113%. Moreover, the activity at 5 µM came out at 111%, the activity at 6 µM is 106%, the activity at 7 µM was determined as 93.3% and the activity at 10 µM was found to be 52.1%. Also, the activity at 25 µM was 11.2% and the activity at 50 µM was determined as 11.9%.

For the compound `CCOC1=CC(=O)c2ccccc2C1=O` [Analog F53, 2-ethoxy-1,4-naphthoquinone], the activity at 1 µM worked out at 94%, the activity at 2 µM stood at 91.8%, the activity at 3 µM was determined as 89.9% and the activity at 4 µM worked out at 93.2%. In addition, the activity at 5 µM turned out to be 93.7%, the activity at 6 µM was determined as 92.5%, the activity at 7 µM is 93.4% and the activity at 10 µM turned out to be 94.1%. For the same compound, the activity at 25 µM turned out to be 28.6% and the activity at 50 µM came to 12.9%.

For the compound `O=C1C(Br)=C(Oc2ccc(OC3=C(Br)C(=O)c4ccccc4C3=O)cc2)C(=O)c2ccccc21` [Analog F57, 3,3′-(1,4-phenylenebis(oxy))bis(2-bromonaphthalene-1,4-dione)], the activity at 2 µM came to 98.2%, the activity at 3 µM came out at 98%, the activity at 4 µM was 98.6% and the activity at 5 µM turned out to be 98.9%. Further, the activity at 6 µM was 95.7%, the activity at 7 µM amounted to 86.7%, the activity at 10 µM was found to be 61.4% and the activity at 15 µM came to 42.8%. Also, the activity at 25 µM was determined as 17.4%.
